Where two headings read alike, the source gives them in different places.
Key:
[1] = test system: P. falciparum 3D7 parasites; assay: P. falciparum growth inhibition assay, 1-cycle (72 h treatment), SYBR DNA staining (library screen at 2 μg/mL and dose-response); assay type: cell-based, Plasmodium falciparum; settings: for activity at 2 µg/mL: Plasmodium falciparum, 3D7
[2] = test system: P. falciparum 3D7 parasites; assay: P. falciparum growth inhibition assay, 2-cycle (120 h treatment), delayed-death screen and dose-response; assay type: cell-based, Plasmodium falciparum; settings: for activity at 2 µg/mL: Plasmodium falciparum, 3D7
[3] = test system: T. gondii RH strain (RH-Tub-eYFP) tachyzoites; assay: microbe, parasite or virus in culture; assay type: cell-based, Toxoplasma gondii; settings: 72 h; for percent parasite growth at 2 µg/mL: Toxoplasma gondii
[4] = library screen at 2 μg/mL, 72 h, % growth, replicate 1
[5] = library screen at 2 μg/mL, 72 h, % growth, replicate 2
[6] = library screen at 2 μg/mL, 120 h, % growth, replicate 1
[7] = library screen at 2 μg/mL, 120 h, % growth, replicate 2
[8] = library screen at 2 μg/mL, % growth, replicate 1
[9] = library screen at 2 μg/mL, % growth, replicate 2
[10] = P. falciparum, 72 h, parasite screen 2 μg/mL, % growth, replicate 1
[11] = P. falciparum, 72 h, parasite screen 2 μg/mL, % growth, replicate 2
[12] = P. falciparum, 120 h, parasite screen 2 μg/mL, % growth, replicate 1
[13] = P. falciparum, 120 h, parasite screen 2 μg/mL, % growth, replicate 2
[14] = T. gondii, parasite screen 2 μg/mL, % growth, replicate 1
[15] = T. gondii, parasite screen 2 μg/mL, % growth, replicate 2

Cc1cc(=O)c(O)cc2c1C[C@@H]1CC(C)(C)/C=C/C[C@@]3(C)Oc4cc(O)c(=O)cc(C)c4C[C@@H]3C[C@@H](O)[C@]1(C)O2 [Eupenifeldin]
1) Growth (%) at 72 h ([1]; P. falciparum, 2 μg/mL, 72 h): 28.81%
Mean ([1]; P. falciparum, 72 h, 2 μg/mL, mean of both replicates, growth (% of control)): 28.81
Pf_72h_%Growth_Rep1 [1, 4]: 0.51%
Pf_72h_%Growth_Rep2 [1, 5]: 57.11%
2) Growth (%) at 120 h ([2]; P. falciparum, 2 μg/mL, 120 h): 14.46%
3) Fold change (72 h/120 h) ([2]; P. falciparum, growth at 72 h / growth at 120 h, 2 μg/mL): 2.0
Pf_120h_%Growth_Rep1 [2, 6]: 3.95%
Pf_120h_%Growth_Rep2 [2, 7]: 24.96%
Tg_72h_%Growth_Rep1 [3, 8]: 1.55%
Tg_72h_%Growth_Rep2 [3, 9]: 1.71%

CS[C@H]1SC[C@H]2C(=O)N(C)[C@@H](C(C)C)C(=O)OC[C@@H](NC(=O)c3cnc4ccccc4n3)C(=O)N[C@@H](C)C(=O)N(C)[C@@H]1C(=O)N(C)[C@@H](C(C)C)C(=O)OC[C@@H](NC(=O)c1cnc3ccccc3n1)C(=O)N[C@@H](C)C(=O)N2C [Quinomycin A]
Pf_72h_%Growth_Rep1 [1, 10]: 8.36%
Pf_72h_%Growth_Rep2 [1, 11]: -0.61%
Pf_120h_%Growth_Rep1 [2, 12]: 15.40%
Pf_120h_%Growth_Rep2 [2, 13]: -11.60%
Tg_72h_%Growth_Rep1 [3, 14]: -0.75%
Tg_72h_%Growth_Rep2 [3, 15]: -0.09%

CC1(C)C=Cc2c(ccc3ccc(=O)oc23)O1 [Seselin]
Pf_72h_%Growth_Rep1 [1, 10]: 72.86%
Pf_72h_%Growth_Rep2 [1, 11]: 126.42%
Pf_120h_%Growth_Rep1 [2, 12]: 59.04%
Pf_120h_%Growth_Rep2 [2, 13]: 133.69%
Tg_72h_%Growth_Rep1 [3, 14]: 115.94%
Tg_72h_%Growth_Rep2 [3, 15]: 77.58%

CC[C@H]1OC(=O)[C@H](C)[C@@H](O[C@H]2C[C@@](C)(OC)[C@@H](O)[C@H](C)O2)[C@H](C)[C@@H](O[C@@H]2O[C@H](C)C[C@H](NC)[C@H]2O)[C@](C)(O)C[C@@H](C)C(=O)[C@H](C)[C@@H](O)[C@]1(C)O [Demethylerythromycin A, N-]
Pf_72h_%Growth_Rep1 ([1]; P. falciparum, 72 h, screen at 2 μg/mL, replicate 1): 87.44%
Pf_72h_%Growth_Rep2 ([1]; P. falciparum, 72 h, screen at 2 μg/mL, replicate 2): 93.22%
Pf_120h_%Growth_Rep1 ([2]; P. falciparum, 120 h, screen at 2 μg/mL, replicate 1): 108.40%
Pf_120h_%Growth_Rep2 ([2]; P. falciparum, 120 h, screen at 2 μg/mL, replicate 2): 97.63%
Tg_72h_%Growth_Rep1 ([3]; T. gondii, screen at 2 μg/mL, replicate 1): 111.33%
Tg_72h_%Growth_Rep2 ([3]; T. gondii, screen at 2 μg/mL, replicate 2): 103.06%

C=CCNC1=C2C[C@@H](C)C[C@H](OC)[C@H](O)[C@@H](C)/C=C(\C)[C@H](OC(N)=O)[C@@H](OC)/C=C\C=C(/C)C(=O)NC(=CC1=O)C2=O [Allylamino-17-demethoxygeldanamycin, 17-]
Pf_72h_%Growth_Rep1 [1, 4]: 14.05%
Pf_72h_%Growth_Rep2 [1, 5]: 5.13%
Pf_120h_%Growth_Rep1 [2, 6]: 19.67%
Pf_120h_%Growth_Rep2 [2, 7]: 7.18%
Tg_72h_%Growth_Rep1 [3, 8]: -1.02%
Tg_72h_%Growth_Rep2 [3, 9]: -0.21%

CN(C)[C@H]1C(O)=C(C(N)=O)C(=O)[C@@]2(O)C(O)=C3C(=O)c4c(O)cccc4[C@@](C)(O)[C@H]3[C@H](O)[C@@H]12 [Epioxytetracycline]
Pf_72h_%Growth_Rep1 [1, 4]: 86.72%
Pf_72h_%Growth_Rep2 [1, 5]: 78.69%
Pf_120h_%Growth_Rep1 [2, 6]: 99.19%
Pf_120h_%Growth_Rep2 [2, 7]: 96.08%
Tg_72h_%Growth_Rep1 [3, 8]: 152.95%
Tg_72h_%Growth_Rep2 [3, 9]: 107.04%

C[C@H]1C(=O)N2c3ccccc3[C@@]3(O)C[C@@H]4C(=O)N[C@](C)(c5nc6ccccc6c(=O)n54)N1[C@@H]23 [Fumiquinazoline D]
activity at 2 µg/mL ([1]; library screen at 2 μg/mL, 72 h, % growth, replicate 1, read-out: Pf_72h_%Growth_Rep1): 76.9%
activity at 2 µg/mL ([1]; library screen at 2 μg/mL, 72 h, % growth, replicate 2, read-out: Pf_72h_%Growth_Rep2): 108%
activity at 2 µg/mL ([2]; library screen at 2 μg/mL, 120 h, % growth, replicate 1, read-out: Pf_120h_%Growth_Rep1): 80.2%
activity at 2 µg/mL ([2]; library screen at 2 μg/mL, 120 h, % growth, replicate 2, read-out: Pf_120h_%Growth_Rep2): 101%
percent parasite growth at 2 µg/mL ([3]; library screen at 2 μg/mL, % growth, replicate 1, read-out: Tg_72h_%Growth_Rep1): 124%
percent parasite growth at 2 µg/mL ([3]; library screen at 2 μg/mL, % growth, replicate 2, read-out: Tg_72h_%Growth_Rep2): 109%

CCCCC(C)C=C(C)C=C(C)C(=O)NC1=CC(O)(C=CC=CC=CC(=O)NC2=C(O)CCC2=O)C2OC2C1=O (stereo not shown) [BIA-M1905]
Pf_72h_%Growth_Rep1 ([1]; P. falciparum 3D7, 72 h, library screen at 2 μg/mL, % growth, replicate 1): 81.84%
Pf_72h_%Growth_Rep2 ([1]; P. falciparum 3D7, 72 h, library screen at 2 μg/mL, % growth, replicate 2): 57.54%
Pf_120h_%Growth_Rep1 ([2]; P. falciparum 3D7, 120 h, library screen at 2 μg/mL, % growth, replicate 1): 83.56%
Pf_120h_%Growth_Rep2 ([2]; P. falciparum 3D7, 120 h, library screen at 2 μg/mL, % growth, replicate 2): 90.34%
Tg_72h_%Growth_Rep1 ([3]; T. gondii RH, library screen at 2 μg/mL, % growth, replicate 1): 110.20%
Tg_72h_%Growth_Rep2 ([3]; T. gondii RH, library screen at 2 μg/mL, % growth, replicate 2): 85.96%

— publication PMC12396409, “Screening and hit evaluation of a microbial metabolite library against the pathogenic Plasmodium falciparum and Toxoplasma gondii parasites” (International Journal for Parasitology: Drugs and Drug …, 2025)
